Results published in patent publication US8222290B2, “Substituted N-phenyl-bipyrrolidine ureas and therapeutic use thereof” (Sanofi, priority 2007, dated 2012).
Where a name gives a salt, the structure may show the parent alone.

Biological target: T1, rhesus H3 receptor (Macaca mulatta, UniProt Q865E1)
T1 construct: rhesus monkey (Macacca Mulatta) 445 amino acid H3 receptor; (Genbank #AY231164); expressed in transfected cells; host or cells: Flp-In T-REx 293 Cell Line (Invitrogen), pcDNA5/FRT/TO, induced with tetracycline; membranes
Assay: Rhesus H3 [3H]-Methylhistamine radioligand binding assay (SPA)
Set-up: species or system rhesus monkey (Macacca Mulatta)
Details: [3H]-Methylhistamine 2 nM, rhesus H3 membranes, Cheng-Prusoff
Procedure: Rhesus H3 membranes were prepared from the Flp-In T-REx 293 Cell Line (Invitrogen) stably transfected with pcDNA5/FRT/TO (Invitrogen) containing the rhesus monkey (Macacca Mulatta) 445 amino acid H3 receptor. (Genbank #AY231164). Stably transfected cultures were amplified in tissue culture flasks by standard tissue culture methods and induced to express rhesus H3 by exposure to 500 ng/ml tetracycline (Cellgro) for 24 hours. After induction, cells were dissociated from flasks utilizing Cell Stripper (Cellgro). Cells were centrifuged (1K×g, 5 min) and pellet frozen in an ethanol-dry ice bath to disrupt cell membranes. Frozen cell pellet was re-suspended in 5 mM HEPES (pH 7.4, Invitrogen) at 10 ml/1000 cm2 of harvested cells. The cell suspension was drawn through an 18 gauge needle (2-3×) followed by a 23 gauge needle (2-3×) to further disrupt cell membranes. The cell suspension was centrifuged (40K×g, 30 min). Cell membrane pellet was re-suspended in 5 mM HEPES (pH 7.4, Invitrogen) at a final protein concentration of 10 mg/ml. Rhesus H3 membranes were stored under liquid nitrogen prior to use in [3H]-Methylhistamine and GTPγS radioligand binding assays.
Rhesus H3 radioligand binding assay was performed using rhesus H3 receptor membranes (prepared as described above), [3H]-Methylhistamine (Perkin Elmer) and WGA SPA beads (wheat germ agglutinin scintillation proximity assay) beads (Amersham). The assay was performed in 96-well Opti-Plates (Packard). Each reaction contained 50 μl rhesus H3 membranes (20-30 μg total protein), 50 μl WGA SPA beads (0.1 μg) and 50 μl of 83Ci/mmol [^3H]-Methylhistamine (final concentration 2 nM) and 50 μl of tested compound. The compounds of this invention and/or vehicle were diluted with binding buffer from 10 mM DMSO stocks. Assay plates were sealed with TopSeal (Perkin Elmer) and mixed on shaker (25° C., 1 hour). Assay plates were read on TopCount scintillation counter (Packard). Results were analyzed by Hill transformation and Ki values were determined by Cheng-Prusoff equation.

T1 sequence (Q865E1 1-445): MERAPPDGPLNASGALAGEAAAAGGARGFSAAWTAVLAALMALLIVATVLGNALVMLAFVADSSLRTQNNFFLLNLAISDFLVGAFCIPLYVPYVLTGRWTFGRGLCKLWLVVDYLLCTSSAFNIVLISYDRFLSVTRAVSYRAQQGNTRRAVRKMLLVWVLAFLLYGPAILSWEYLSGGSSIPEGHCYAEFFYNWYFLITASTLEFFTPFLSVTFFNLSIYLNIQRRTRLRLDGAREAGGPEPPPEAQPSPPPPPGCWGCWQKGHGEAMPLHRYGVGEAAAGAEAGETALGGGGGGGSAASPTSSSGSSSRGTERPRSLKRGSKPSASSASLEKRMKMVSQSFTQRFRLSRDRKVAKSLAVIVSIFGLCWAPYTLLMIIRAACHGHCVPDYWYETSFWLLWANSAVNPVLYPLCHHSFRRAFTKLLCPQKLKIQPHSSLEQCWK

Question: With Cc1cc(NC(=O)Nc2cccc(C#N)c2)ccc1N1CCC(N2CCCC2C)C1 (stereo not shown) [Example 23, 1-(3-Cyano-phenyl)-3-[3-methyl-4-(2-methyl-[1,3′]bipyrrolidinyl-1′-yl)-phenyl]-urea trifluoroacetate] as the molecule, how does the Ki read?
Answer: 6.3 nM

Question: How did the Ki turn out when CC1CCCN1C1CCN(c2ccc(NC(=O)NC3CCCCC3)cc2)C1 (stereo not shown) [Example 3, 1-Cyclohexyl-3-[4-(2-methyl-[1,3′]bipyrrolidinyl-1′-yl)-phenyl]-urea trifluoroacetate] was run?
Answer: 4.1 nM

Question: CC1CCCN1C1CCN(c2ccc(NC(=O)NCc3cccs3)cc2)C1 (stereo not shown) [Example 8, 1-[4-(2-Methyl-[1,3′]bipyrrolidinyl-1′-yl)-phenyl]-3-thiophen-2-ylmethyl-urea trifluoroacetate] was tested. Which Ki did it give?
Answer: 2 nM

Question: How did the Ki turn out when Cc1cc(NC(=O)NCc2cccs2)ccc1N1CCC(N2CCCC2C)C1 (stereo not shown) [Example 11, 1-[3-Methyl-4-(2-methyl-[1,3′]bipyrrolidinyl-1′-yl)-phenyl]-3-thiophen-2-ylmethyl-urea trifluoroacetate] was run?
Answer: 8.4 nM

Question: Which Ki does the source give for CC1CCCN1C1CCN(c2ccc(NC(=O)N3CCN(c4ccccc4)CC3)cc2)C1 (stereo not shown) [Example 4, 4-Phenyl-piperazine-1-carboxylic acid [4-(2-methyl-[1,3′]bipyrrolidinyl-1′-yl)-phenyl]-amide trifluoroacetate] here?
Answer: 10.6 nM

Question: How did the Ki turn out when CC1CCCN1C1CCN(c2ccc(NC(=O)NCc3cc(Cl)cc(Cl)c3)c(C(F)(F)F)c2)C1 (stereo not shown) [Example 25, 1-(3,5-Dichloro-benzyl)-3-[4-(2-methyl-[1,3′]bipyrrolidinyl-1′-yl)-2-trifluoromethyl-phenyl]-urea trifluoroacetate] was run?
Answer: 18.1 nM

Question: With CC(=O)N1CCN(C(=O)Nc2ccc(N3CCC(N4CCCC4C)C3)c(C)c2)CC1 (stereo not shown) [Example 22, 4-Acetyl-piperazine-1-carboxylic acid [3-methyl-4-(2-methyl-[1,3′]bipyrrolidinyl-1′-yl)-phenyl]-amide trifluoroacetate] as the molecule, how does the Ki read?
Answer: 23 nM

Question: With Cc1cc(N2CCC(N3CCCC3C)C2)ccc1NC(=O)Nc1cc(Cl)cc(Cl)c1 (stereo not shown) [Example 15, 1-(3,5-Dichloro-phenyl)-3-[2-methyl-4-(2-methyl-[1,3′]bipyrrolidinyl-1′-yl)-phenyl]-urea trifluoroacetate] as the molecule, how does the Ki read?
Answer: 22.2 nM

Question: CC1CCCN1C1CCN(c2ccc(NC(=O)N3Cc4ccccc4C3)cc2)C1 (stereo not shown) [Example 6, 1,3-Dihydro-isoindole-2-carboxylic acid [4-(2-methyl-[1,3′]bipyrrolidinyl-1′-yl)-phenyl]-amide trifluoroacetate] was tested. Which Ki did it give?
Answer: 11.1 nM

Question: For CC1CCCN1C1CCN(c2ccc(NC(=O)Nc3cccc(C#N)c3)cc2)C1 (stereo not shown) [Example 7, 1-(3-Cyano-phenyl)-3-[4-(2-methyl-[1,3′]bipyrrolidinyl-1′-yl)-phenyl]-urea trifluoroacetate], which Ki is on record?
Answer: 7.7 nM

Question: Which Ki does the source give for CC1CCCN1C1CCN(c2ccc(NC(=O)N3CCCCC3)cc2)C1 (stereo not shown) [Example 1, Piperidine-1-carboxylic acid [4-(2-methyl-[1,3′]bipyrrolidinyl-1′-yl)-phenyl]-amide trifluoroacetate] here?
Answer: 6 nM

Question: With CC1CCCN1C1CCN(c2ccc(NC(=O)Nc3cc(Cl)cc(Cl)c3)cc2)C1 (stereo not shown) [Example 12, 1-(3,5-Dichloro-phenyl)-3-[4-(2-methyl-[1,3′]bipyrrolidinyl-1′-yl)-phenyl]-urea trifluoroacetate] as the molecule, how does the Ki read?
Answer: 19.1 nM

Question: With Cc1cc(NC(=O)Nc2cc(Cl)cc(Cl)c2)ccc1N1CCC(N2CCCC2C)C1 (stereo not shown) [Example 19, 1-(3,5-Dichloro-phenyl)-3-[3-methyl-4-(2-methyl-[1,3′]bipyrrolidinyl-1′-yl)-phenyl]-urea trifluoroacetate] as the molecule, how does the Ki read?
Answer: 43 nM

Question: For Cc1cc(NC(=O)N2Cc3ccccc3C2)ccc1N1CCC(N2CCCC2C)C1 (stereo not shown) [Example 21, 1,3-Dihydro-isoindole-2-carboxylic acid [3-methyl-4-(2-methyl-[1,3′]bipyrrolidinyl-1′-yl)-phenyl]-amide trifluoroacetate], which Ki is on record?
Answer: 8 nM

Question: For CC(=O)N(C)C1CCN(C(=O)Nc2ccc(N3CCC(N4CCCC4C)C3)c(C)c2)C1 (stereo not shown) [Example 2, 3-(Acetyl-methyl-amino)-pyrrolidine-1-carboxylic acid [3-methyl-4-(2-methyl-[1,3′]bipyrrolidinyl-1′-yl)-phenyl]-amide trifluoroacetate], which Ki is on record?
Answer: 89.7 nM

Question: CC1CCCN1C1CCN(c2ccc(NC(=O)N3CCN(C)CC3)cc2)C1 (stereo not shown) [Example 5, 4-Methyl-piperazine-1-carboxylic acid [4-(2-methyl-[1,3′]bipyrrolidinyl-1′-yl)-phenyl]-amide trifluoroacetate] was tested. Which Ki did it give?
Answer: 25.7 nM

Question: Which Ki does the source give for Cc1cc(N2CCC(N3CCCC3C)C2)ccc1NC(=O)N1Cc2ccccc2C1 (stereo not shown) [Example 18, 1,3-Dihydro-isoindole-2-carboxylic acid [2-methyl-4-(2-methyl-[1,3′]bipyrrolidinyl-1′-yl)-phenyl]-amide trifluoroacetate] here?
Answer: 10.8 nM

Question: For CC(=O)N(C)C1CCN(C(=O)Nc2ccc(N3CCC(N4CCCC4C)C3)cc2)C1 (stereo not shown) [Example 14, 3-(Acetyl-methyl-amino)-pyrrolidine-1-carboxylic acid [4-(2-methyl-[1,3′]bipyrrolidinyl-1′-yl)-phenyl]-amide trifluoroacetate], which Ki is on record?
Answer: 35.5 nM

Question: Which Ki does the source give for Cc1cc(N2CCC(N3CCCC3C)C2)ccc1NC(=O)N1CCN(C)CC1 (stereo not shown) [Example 17, 4-Methyl-piperazine-1-carboxylic acid [2-methyl-4-(2-methyl-[1,3′]bipyrrolidinyl-1′-yl)-phenyl]-amide trifluoroacetate] here?
Answer: 10.5 nM

Question: How did the Ki turn out when Cc1cc(N2CCC(N3CCCC3C)C2)ccc1NC(=O)NC1CCCCC1 (stereo not shown) [Example 16, 1-Cyclohexyl-3-[2-methyl-4-(2-methyl-[1,3′]bipyrrolidinyl-1′-yl)-phenyl]-urea trifluoroacetate] was run?
Answer: 4.6 nM

Question: For Cc1cc(NC(=O)NCc2cc(Cl)cc(Cl)c2)ccc1N1CCC(N2CCCC2C)C1 (stereo not shown) [Example 9, 1-(3,5-Dichloro-benzyl)-3-[3-methyl-4-(2-methyl-[1,3′]bipyrrolidinyl-1′-yl)-phenyl]-urea trifluoroacetate], which Ki is on record?
Answer: 28.9 nM

Question: Which Ki does the source give for Cc1cc(NC(=O)N2CCCCC2)ccc1N1CCC(N2CCCC2C)C1 (stereo not shown) [Example 24, Piperidine-1-carboxylic acid [3-methyl-4-(2-methyl-[1,3′]bipyrrolidinyl-1′-yl)-phenyl]-amide trifluoroacetate] here?
Answer: 29 nM

Question: How did the Ki turn out when Cc1cc(NC(=O)NC2CCCCC2)ccc1N1CCC(N2CCCC2C)C1 (stereo not shown) [Example 10, 1-Cyclohexyl-3-[3-methyl-4-(2-methyl-[1,3′]bipyrrolidinyl-1′-yl)-phenyl]-urea trifluoroacetate] was run?
Answer: 11.2 nM

Question: Cc1cc(NC(=O)N2CCN(C)CC2)ccc1N1CCC(N2CCCC2C)C1 (stereo not shown) [Example 20, 4-Methyl-piperazine-1-carboxylic acid [3-methyl-4-(2-methyl-[1,3′]bipyrrolidinyl-1′-yl)-phenyl]-amide trifluoroacetate] was tested. Which Ki did it give?
Answer: 12.7 nM

Question: How did the Ki turn out when CC(=O)N1CCN(C(=O)Nc2ccc(N3CCC(N4CCCC4C)C3)cc2)CC1 (stereo not shown) [Example 13, 4-Acetyl-piperazine-1-carboxylic acid [4-(2-methyl-[1,3′]bipyrrolidinyl-1′-yl)-phenyl]-amide trifluoroacetate] was run?
Answer: 34.1 nM
